Target: T1, NPY Y2 receptor (Homo sapiens, UniProt P49146)
T1 construct: endogenous in cells; host or cells: KAN-Ts cells (membrane preparation)
T1 sequence (P49146 1-381): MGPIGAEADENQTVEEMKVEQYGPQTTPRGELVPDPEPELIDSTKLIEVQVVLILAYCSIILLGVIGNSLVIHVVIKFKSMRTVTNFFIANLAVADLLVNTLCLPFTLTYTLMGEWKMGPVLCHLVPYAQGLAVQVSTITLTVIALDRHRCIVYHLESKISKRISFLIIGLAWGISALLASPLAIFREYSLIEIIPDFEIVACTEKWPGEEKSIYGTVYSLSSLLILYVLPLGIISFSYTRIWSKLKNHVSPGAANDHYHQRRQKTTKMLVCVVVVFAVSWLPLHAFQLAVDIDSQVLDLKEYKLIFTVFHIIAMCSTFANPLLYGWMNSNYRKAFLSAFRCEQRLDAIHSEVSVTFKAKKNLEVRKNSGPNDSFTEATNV
Assay: Neuropeptide Y2 radioligand binding assay ([125I]PYY, KAN-Ts cell membranes)
Conditions: membranes of KAN-Ts cells endogenously expressing Y2 receptors; [125I]PYY 80 pM; 1 h at rt; read-out: IC50 (μM), NPY Y2 binding
Method: KAN-Ts endogenously expressing Y2 receptors were used for the radioligand binding assay. Cells were grown to confluence on 150 cm^2 tissue culture plates, washed with phosphate-buffered saline (PBS), and scraped into 50 mL tubes. After centrifugation, the supernatant was aspirated, and the pellets frozen and stored at −80° C. Thawed pellets were homogenized with a polytron tissue grinder for 15 sec in 20 mM Tris-HCl, 5 mM EDTA. The homogenate was centrifuged at 800×g for 5 min and the collected supernatant was recentrifuged at 25000×g for 25 min. The resulting pellet was resuspended in binding buffer (20 mM HEPES, 120 mM NaCl, 0.22 mM KH2PO4, 1.3 mM CaCl2, 0.8 mM MgSO4). Membranes were incubated with [^125I]PYY (80 pM) in the presence or absence of test compound for 1 h at rt. The reaction was stopped by filtration through GF/C filter plates pre-soaked in 0.3% polyethylenimine and subsequently washed with Tris 50 mM, 5 mM EDTA buffer. Plates were dried for 1 h in a 55° C. oven, scintillation fluid was added and the radioactivity was counted in a Packard TopCount. Specific binding to the NPY receptor subtypes was determined by radioactivity that was bound in the presence of […] NPY. Each binding experiment was repeated three to eight times, each in duplicate. IC50 values (i.e. concentration of unlabelled peptide or antagonist required to compete for 50% of specific binding to the radioligand) were determined using the GraphPad Prism software (GraphPad Software Inc., San Diego Calif.) with a fit to a sigmoidal dose response curve. Apparent K values were as K=IC50/(1+C/KD), where C is concentration of the radioligand.

| IC50 [µM] | SMILES |
| --- | --- |
| 2.1 | CCN(CC)C(=O)C(c1ccccc1)N1CCN(c2ccc(-c3nc(C(C)C)no3)cc2C(N)=O)CC1 (stereo not shown) [Compound 221, 2-[4-(Diethylcarbamoyl-phenyl-methyl)-piperazin-1-yl]-5-(3-isopropyl-[1,2,4]oxadiazol-5-yl)-benzamide] |
| 2.7 | CC(=O)C(c1ccccc1)N1CCN(c2ccc(-c3nc(C(C)C)no3)cc2F)CC1 (stereo not shown) [Compound 198, 1-{4-[2-Fluoro-4-(3-isopropyl-[1,2,4]oxadiazol-5-yl)-phenyl]-piperazin-1-yl}-1-phenyl-propan-2-one] |
| 1.1 | CCN(CC)C(=O)C(c1ccccc1)N1CCN(c2ccc(-c3nc(C)n(C)n3)cc2F)CC1 (stereo not shown) [Compound 215, 2-{4-[4-(1,5-Dimethyl-1H-[1,2,4]triazol-3-yl)-2-fluoro-phenyl]-piperazin-1-yl}-N,N-diethyl-2-phenyl-acetamide] |
| 0.74 | CCN(CC)C(=O)C(c1ccccc1)N1CCN(c2ccc(-c3ccccn3)cc2F)CC1 (stereo not shown) [Compound 201, N,N-Diethyl-2-[4-(2-fluoro-4-pyridin-2-yl-phenyl)-piperazin-1-yl]-2-phenyl-acetamide] |
| 8.3 | CCN(CC)C(=O)C(c1ccccc1)N1CCN(c2ccc(-c3ccccc3C#N)cc2F)CC1 (stereo not shown) [Compound 253, 2-[4-(2′-Cyano-3-fluoro-biphenyl-4-yl)-piperazin-1-yl]-N,N-diethyl-2-phenyl-acetamide] |
| 0.41 | CCNC(=O)C(c1ccccc1)N1CCN(c2ccc(-c3nc(C)no3)cc2C#N)CC1 (stereo not shown) [Compound 261, 2-{4-[2-Cyano-4-(3-methyl-[1,2,4]oxadiazol-5-yl)-phenyl]-piperazin-1-yl}-N-ethyl-2-phenyl-acetamide] |
| 2.8 | CCCCC(C(=O)N(CC)CC)N1CCN(c2ccc(-c3nc(C)no3)cc2F)CC1 (stereo not shown) [Compound 199, 2-{4-[2-Fluoro-4-(3-methyl-[1,2,4]oxadiazol-5-yl)-phenyl]-piperazin-1-yl}-hexanoic acid diethylamide] |
| 1.8 | CCN(CC)C(=O)C(c1ccccc1)N1CCN(c2ccc(-c3nc(C(C)C)no3)cc2CNC)CC1 (stereo not shown) [Compound 258, N,N-Diethyl-2-{4-[4-(3-isopropyl-[1,2,4]oxadiazol-5-yl)-2-methylaminomethyl-phenyl]-piperazin-1-yl}-2-phenyl-acetamide] |
| 2.9 | CCN(CC)C(=O)C(c1ccccc1)N1CCN(c2ccc(-c3nc(C)n[nH]3)cc2F)CC1 (stereo not shown) [Compound 208, N,N-Diethyl-2-{4-[2-fluoro-4-(5-methyl-2H-[1,2,4]triazol-3-yl)-phenyl]-piperazin-1-yl}-2-phenyl-acetamide] |
| 0.17 | CCN(CC)C(=O)C(c1ccccc1)N1CCN(c2ccc(-c3nc(C(C)C)no3)cc2C=O)CC1 (stereo not shown) [Compound 256, N,N-Diethyl-2-{4-[2-formyl-4-(3-isopropyl-[1,2,4]oxadiazol-5-yl)-phenyl]-piperazin-1-yl}-2-phenyl-acetamide] |
| 0.92 | CCN(CC)C(=O)C(c1ccccc1)N1CCN(c2ccc(-c3ccc(Cl)cc3)cc2F)CC1 (stereo not shown) [Compound 196, 2-[4-(4′-Chloro-3-fluoro-biphenyl-4-yl)-piperazin-1-yl]-N,N-diethyl-2-phenyl-acetamide] |
| 1 | CCN(CC)C(=O)C(c1ccccc1)N1CCN(c2ccc(-c3ccccc3C)cc2F)CC1 (stereo not shown) [Compound 254, N,N-Diethyl-2-[4-(3-fluoro-2′-methyl-biphenyl-4-yl)-piperazin-1-yl]-2-phenyl-acetamide] |
| 0.098 | CCN(CC)C(=O)C(c1ccc(F)cc1)N1CCN(c2ccc(-c3nc(C)no3)cc2C#N)CC1 (stereo not shown) [Compound 262, 2-{4-[2-Cyano-4-(3-methyl-[1,2,4]oxadiazol-5-yl)-phenyl]-piperazin-1-yl}-N,N-diethyl-2-(4-fluoro-phenyl)-acetamide] |
| 0.99 | CCN(CC)C(=O)C(c1cc(F)ccc1Br)N1CCN(c2ccc(-c3nc(C)no3)cc2F)CC1 (stereo not shown) [Compound 209, 2-(2-Bromo-5-fluoro-phenyl)-N,N-diethyl-2-{4-[2-fluoro-4-(3-methyl-[1,2,4]oxadiazol-5-yl)-phenyl]-piperazin-1-yl}-acetamide] |
| 1 | CCOC(=O)C(C)(c1ccccc1)N1CCN(c2ccc(-c3nc(C)no3)cc2F)CC1 (stereo not shown) [Compound 226, 2-{4-[2-Fluoro-4-(3-methyl-[1,2,4]oxadiazol-5-yl)-phenyl]-piperazin-1-yl}-2-phenyl-propionic acid ethyl ester] |
| 0.096 | CCN(CC)C(=O)C(c1cccs1)N1CCN(c2ccc(-c3nc(C)no3)cc2C#N)CC1 (stereo not shown) [Compound 252, 2-{4-[2-Cyano-4-(3-methyl-[1,2,4]oxadiazol-5-yl)-phenyl]-piperazin-1-yl}-N,N-diethyl-2-thiophen-2-yl-acetamide] |
| 1 | CCN(CC)C(=O)C(c1ccccc1)N1CCN(c2ccc(-c3nc(C(C)C)nn3C)cc2F)CC1 (stereo not shown) [Compound 220, N,N-Diethyl-2-{4-[2-fluoro-4-(5-isopropyl-2-methyl-2H-[1,2,4]triazol-3-yl)-phenyl]-piperazin-1-yl}-2-phenyl-acetamide] |

Further lines, the compound ahead of its results:

| SMILES | IC50 [µM] |
| --- | --- |
| CCN(CC)C(=O)C(c1ccccc1)N1CCN(c2ccc(-c3ncon3)cc2F)CC1 (stereo not shown) [Compound 158, N,N-Diethyl-2-[4-(2-fluoro-4-[1,2,4]oxadiazol-3-yl-phenyl)-piperazin-1-yl]-2-phenyl-acetamide] | 1.5 |
| CCN(CC)C(=O)C(c1ccccc1)N1CCN(c2ccc(-c3ccccc3)cc2F)CC1 (stereo not shown) [Compound 193, N,N-Diethyl-2-[4-(3-fluoro-biphenyl-4-yl)-piperazin-1-yl]-2-phenyl-acetamide] | 0.42 |
| CCN(CC)C(=O)C(c1ccccc1)N1CCN(c2ccc(-c3noc(C(C)(C)C)n3)cc2F)CC1 (stereo not shown) [Compound 75, 2-{4-[4-(5-tert-Butyl-[1,2,4]oxadiazol-3-yl)-2-fluoro-phenyl]-piperazin-1-yl}-N,N-diethyl-2-phenyl-acetamide] | 0.6 |
| CC[C@H](C)c1nc(-c2ccc(N3CCN(C(C(=O)N(CC)CC)c4ccccc4)CC3)c(F)c2)no1 (stereo in doubt) [Compound 97, 2-{4-[4-(5-sec-Butyl-[1,2,4]oxadiazol-3-yl)-2-fluoro-phenyl]-piperazin-1-yl}-N,N-diethyl-2-phenyl-acetamide] | 0.37 |
| CC(C)c1noc(-c2ccc(N3CCN(C(C(=O)N(C)C)c4ccccc4)CC3)c(F)c2)n1 (stereo not shown) [Compound 180, 2-{4-[2-Fluoro-4-(3-isopropyl-[1,2,4]oxadiazol-5-yl)-phenyl]-piperazin-1-yl}-N,N-dimethyl-2-phenyl-acetamide] | 0.15 |
| Cc1noc(-c2ccc(N3CCN(C(C(=O)N4CCC(F)(F)CC4)c4ccccc4)CC3)c(F)c2)n1 (stereo not shown) [Compound 189, 1-(4,4-Difluoro-piperidin-1-yl)-2-{4-[2-fluoro-4-(3-methyl-[1,2,4]oxadiazol-5-yl)-phenyl]-piperazin-1-yl}-2-phenyl-ethanone] | 0.48 |
| COC(=O)C(c1ccccc1)N1CCN(c2ccc(-c3nc(C)no3)cc2F)CC1 (stereo not shown) [Compound 183, {4-[2-Fluoro-4-(3-methyl-[1,2,4]oxadiazol-5-yl)-phenyl]-piperazin-1-yl}-phenyl-acetic acid methyl ester] | 3.1 |
| CCN(CC)C(=O)C(c1ccccc1)N1CCN(c2ccc(C3=NN(C(C)C)C(=O)C3)cc2F)CC1 (stereo not shown) [Compound 191, N,N-Diethyl-2-{4-[2-fluoro-4-(1-isopropyl-5-oxo-4,5-dihydro-1H-pyrazol-3-yl)-phenyl]-piperazin-1-yl}-2-phenyl-acetamide] | 0.34 |
| CCN(CC)C(=O)C(c1ccccc1)N1CCN(c2ccc(-c3nc(C)ns3)cc2F)CC1 (stereo not shown) [Compound 271, N,N-Diethyl-2-{4-[2-fluoro-4-(3-methyl-[1,2,4]thiadiazol-5-yl)-phenyl]-piperazin-1-yl}-2-phenyl-acetamide] | 0.11 |
| CCN(CC)C(=O)C(c1ccccc1)N1CCN(c2ccc(-c3nc(C(=O)OC)co3)cc2F)CC1 (stereo not shown) [Compound 129, 2-{4-[4-(Diethylcarbamoyl-phenyl-methyl)-piperazin-1-yl]-3-fluorophenyl}-oxazole-4-carboxylic acid methyl ester] | 1.9 |
| CCN(CC)C(=O)C(c1ccccc1)N1CCN(c2ccc(-c3nc(C(C)C)n(C)n3)cc2F)CC1 (stereo not shown) [Compound 216, N,N-Diethyl-2-{4-[2-fluoro-4-(5-isopropyl-1-methyl-1H-[1,2,4]triazol-3-yl)-phenyl]-piperazin-1-yl}-2-phenyl-acetamide] | 1.95 |

— patent US20120015957A1, “PIPERAZINYL DERIVATIVES USEFUL AS MODULATORS OF THE NEUROPEPTIDE Y2 RECEPTOR” (priority 2007, published 2012)
